Here are results for four compounds from publication PMC6892925, “Development of Novel Silyl Cyanocinnamic Acid Derivatives as Metabolic Plasticity Inhibitors for Cancer Treatment” (Scientific Reports, 2019).

“Also recorded” adds a separate entry of the source. Like-named read-outs stand apart in the source and are kept apart here. Bounds are passed on as bounds.

For one experiment, the system named is WiDr cells. The experiment can be described thus: Western blot analysis of cell damage and death markers. It is filed as cell-based, human. As to conditions: WiDr cultures treated with 2a plus NAC. Here is the method: Owing to the enhanced antiproliferative effects induced by test compound 2a when compared to CHC, western blot analysis of cell damage and death markers was performed. The master transcription factor p53 regulates the expression of numerous genes involved in cancer progression and is responsible for balancing proliferation and apoptosis. In this regard, we evaluated the effects of compound treatment on p53 expression. Literature reports indicate that MDA-MB-231 and WiDr cells express distinct homozygous mutant forms of p53 that promote an aggressive malignant phenotype with resistance to apoptosis[36],[37]. […] Further, PARP1 is involved in the DNA repair pathway through sensing DNA-strand breaks and recruiting repair enzymes. Importantly, PARP1 is a target of caspase cleavage under apoptotic conditions, and the appearance of the PARP1 cleavage product is a widely used indicator of cellular apoptosis. […] Additionally, DNA damage may be a downstream effect of apoptotic nuclease activity or an increase in reactive oxygen species (ROS) from damaged mitochondria; as illustrated in microscopy and seahorse experiments. Histone 2AX phosphorylation (γH2AX) resulting from DNA single- and double-strand breaks is a widely employed marker for DNA damage. In this regard, we investigated the effect of 2a on DNA damage marker γH2AX (phosphorylated Ser139, histone H2AX) with a phospho-specific antibody. […] Due to the potential of ROS leading to DNA damage and H2AX phosphorylation, we investigated the ability of antioxidant N-acetyl cysteine (NAC) to inhibit DNA damage of compound 2a as evidenced by H2AX phosphorylation in the highly oxidative cell line WiDr (Fig. 4A).
50,000 WiDr or MDA-MB-231 cells were seeded in 100 mm dishes and were incubated for 48 hours. Cells were then treated with test compounds for 24 hours, washed twice with 1X PBS, solubilized in 200 μL SDS boiling buffer (5% w/v SDS, 10% v/v glycerol, and 60 mM Tris pH 6.8), and sonicated. The resulting cell lysate was then assayed for protein using the Pierce BCA protocol. A volume of test sample containing 10 μg protein was loaded on SDS PAGE gel for electrophoresis according to manufacturer’s instructions. Proteins were transferred from the gel to nitrocellulose membrane according to the manufacturer’s instructions. Membranes were blocked for 1 hr at 35 °C using 10% (w/v) non-fat milk in PBST and were exposed to primary antibody. PARP1 (rabbit polyclonal IgG, Origene, TA321555), p53 (rabbit polyclonal IgG, Santa Cruz, sc50329), and γ-H2AX (Upstate 05-636, 1:2500) were detected and visualized using HRP chemiluminescence. For relative quantitation, β-actin (mouse monoclonal IgG C4, Millipore, MAB1501, 1:10,000) and GAPDH (mouse monoclonal IgG, Santa Cruz, sc47724, 1:100) were detected and measured as a control protein.
For orientation: Immunoblotting shows a protein as a band on a membrane.

The next experiment has as its system WiDr cell line. In words: MTT cell proliferation inhibition assay. The note with it: Homo sapiens, read-out: MTT IC50.
In a further experiment the test system is 4T1 cell line. In words: MTT cell proliferation inhibition assay. As to conditions: Mus musculus, 4T1, read-out: MTT IC50.
A further experiment deals with T1, MCT1 (Rattus norvegicus, UniProt P53987).
T1 construct: using an L-[^14C]-lactate study on the MCT1 expressing RBE4 cell line; endogenous in cells; host or cells: RBE4 (rat brain endothelial 4) cells, a gift from F. Roux
T1 sequence (P53987 1-494): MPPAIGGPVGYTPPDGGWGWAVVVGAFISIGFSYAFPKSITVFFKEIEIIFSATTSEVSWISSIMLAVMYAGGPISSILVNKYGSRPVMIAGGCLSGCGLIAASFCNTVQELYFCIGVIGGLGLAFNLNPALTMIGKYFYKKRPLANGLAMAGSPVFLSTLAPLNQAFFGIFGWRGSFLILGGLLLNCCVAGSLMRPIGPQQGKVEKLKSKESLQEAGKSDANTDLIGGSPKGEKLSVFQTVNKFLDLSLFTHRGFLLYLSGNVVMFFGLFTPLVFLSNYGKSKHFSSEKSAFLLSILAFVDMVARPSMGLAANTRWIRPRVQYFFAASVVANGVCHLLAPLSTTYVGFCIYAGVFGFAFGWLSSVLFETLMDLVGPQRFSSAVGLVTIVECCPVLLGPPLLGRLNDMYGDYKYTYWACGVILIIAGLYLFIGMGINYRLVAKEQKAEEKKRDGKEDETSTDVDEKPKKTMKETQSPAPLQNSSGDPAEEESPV
The experiment can be described thus: MCT1 inhibition assay via L-[14C]-lactate uptake in RBE4 cells. Type of experiment: cell-based. As to conditions: for MCT1 inhibition properties: at the concentrations tested, RBE4 cells.

Experiment [1] has as its system MCF7, 4T1, WiDr, and MDA-MB-231 cell lines. In words: MTT cell proliferation inhibition, all cell lines tested. It is filed as cell-based. The note with it: for cell proliferation inhibition: concentrations up to 500 µM, solubility limit above (0.1% DMSO in growth media).
Procedure: (§1) Cell proliferation inhibition was evaluated using 3-(4,5-dimethylthiazol-2-yl)-2,5-diphenyl tetrazolium bromide (MTT) assay as reported previously[19].
Another experiment concerns MDA-MB-231 cell line. In words: MTT cell proliferation inhibition assay. The note with it: Homo sapiens, MDA-MB-231, read-out: MTT IC50.
For another experiment, the system named is MCF7 cell line. The experiment can be described thus: MTT cell proliferation inhibition assay. As to conditions: Homo sapiens, MCF7, read-out: MTT IC50.
[2] abbreviates: L-[14C]-lactate uptake, MCT1 expressing RBE4 cell line, average ± SEM of three separate experiments, read-out: MCT1 IC50.

Procedure for 4T1 cell line: (§2) Human triple-negative breast cancer MDA-MB-231 cells (ATCC) were grown in DMEM supplemented with 10% FBS (Atlanta Biologicals) and penicillin-streptomycin (50U/ml, 50 µg/ml, Invitrogen). Human colorectal adenocarcinoma WiDr cells (ATCC) were cultured in MEM medium supplemented with 10% FBS and penicillin-streptomycin. […] Murine metastatic breast cancer 4T1 cells were grown in RPMI-1640 supplemented with 10% FBS and penicillin-streptomycin. Human estrogen receptor positive breast cancer MCF7 cells (Masonic Cancer Center, University of Minnesota) were grown in MEM supplemented with 6% FBS, EGF (0.01 µg/ml), NEAA, HDC (1 µg/ml), insulin (10 µg/ml), HEPES (12 mM) and sodium pyruvate (1 mM).
as §1
Procedure for MCF7 cell line: as §2, §1
Procedure for WiDr cell line: as §2, §1

With `CC(=O)N[C@@H](CS)C(=O)O` [NAC, N-acetyl cysteine, reference compound], in the experiment with WiDr cells, the “effect on 2a-induced H2AX activation” value is reported as “significantly reduced” and the “effect on 2a-induced PARP1 cleavage” value is listed as “did not reverse PARP1 cleavage”.

In general, IC50 refers to the concentration that gives 50% inhibition. In the case of `N#C/C(=C\c1ccc(OCCO)cc1)C(=O)O` [2c], the half-maximal inhibitory concentration (IC50) in the experiment on WiDr cell line was above 500 µM; in the experiment on 4T1 cell line, above 500 µM; at MCT1 (setting [2]), above 5 µM; in the experiment on MDA-MB-231 cell line, above 500 µM; in the experiment on MCF7 cell line, above 500 µM. In addition, the MCT1 inhibition properties entry on MCT1 is given as “did not exhibit MCT1 inhibition properties”. Besides, the cell proliferation inhibition result in experiment [1] is reported as “did not show significant cell proliferation inhibition; also recorded: did not exhibit any cell proliferation inhibition properties”.

Consider `N#C/C(=C\c1ccc(OCCBr)cc1)C(=O)O` [2d], for which the concentration for half-maximal inhibition (IC50) was above 500 µM in the experiment on WiDr cell line; above 500 µM in the experiment with 4T1 cell line; above 5 µM at MCT1 (setting [2]); above 500 µM with MDA-MB-231 cell line; above 500 µM with MCF7 cell line. Also, the MCT1 inhibition properties result at MCT1 is recorded as “did not exhibit MCT1 inhibition properties”. Moreover, the cell proliferation inhibition entry in experiment [1] is listed as “did not show significant cell proliferation inhibition; also recorded: did not exhibit any cell proliferation inhibition properties”.

For the compound `N#CC(=Cc1ccc(O)cc1)C(=O)O` [CHC 1, α-cyano-4-hydroxycinnamic acid, reference compound], the IC50 is 1100 ± 96 µM in the experiment on WiDr cell line; 3600 ± 300 µM in the experiment on 4T1 cell line; above 150 µM on MCT1; 1100 to 5300 µM in experiment [1] (read-out: MTT IC50 values, span over all the cell lines tested); 5300 ± 130 µM with MDA-MB-231 cell line; 4000 ± 130 µM in the experiment with MCF7 cell line. Also, on MCT1 (lactate uptake assay, discussion statement), the “concentration at which MCT1 function is inhibited” value is at least 150 µM.
